Assay results reported in publication PMC3048208 (British Journal of Cancer, 2011).
Counter-ions that a name gives are not always drawn. Marks after values point to notes of the source that are not given here.

System: patients with advanced solid tumours
Test: Phase I safety: DLT and adverse events (CTCAE v3.0)
[1] = Grades 3/4, level 5.5, 60 mg, 7 patients
[2] = Grades 3/4, level 6, 70 mg, 6 patients
[3] = Grades 3/4, level 7, 90 mg, 2 patients
[4] = all 38 treated patients, all grades
[5] = dose level 3, dose 20, 5 days every 2 weeks
[6] = dose level 6, dose 70, 5 days every 2 weeks, re-opened for expansion

Q: Which “AST (raised), no. of patients” value [1] does the source give for `CCCCc1nc2cc(/C=C/C(=O)NO)ccc2n1CCN(CC)CC` [SB939, 3-[2-butyl-1-(2-diethylaminoethyl)-1H-benzoimidazol-5-yl]-N-hydroxyacrylami-hydrochloride] here?
A: 0

Q: What about the “Abdominal pain, no. of patients” value [1] of the same compound?
A: 0

Q: And the “Alkaline phophatase (raised), no. of patients” value [1]?
A: 0

Q: What about the “Altered taste, no. of patients” value [1] of the same compound?
A: 0

Q: What about the “Anaemia, no. of patients” value [1] of the same compound?
A: 0

Q: What about the “Anorexia, no. of patients” value [1] of the same compound?
A: 0

Q: And the “Bilirubin (raised), no. of patients” value [1]?
A: 0

Q: What about the “CPK, no. of patients” value [1] of the same compound?
A: 0

Q: What about the “Cardiac arrythmia other, no. of patients” value [1] of the same compound?
A: 0

Q: And the “Cardiac dysfunction, no. of patients” value [1]?
A: 0

Q: What about the “Cardiac ischaemia, no. of patients” value [1] of the same compound?
A: 0

Q: What about the “Constipation, no. of patients” value [1] of the same compound?
A: 0

Q: What about the “Creatinine (raised), no. of patients” value [1] of the same compound?
A: 0

Q: What about the “Diarrhoea, no. of patients” value [1] of the same compound?
A: 1

Q: And the “Fatigue, no. of patients” value [1]?
A: 1

Q: What about the “Leukopenia, no. of patients” value [1] of the same compound?
A: 1

Q: What about the “Lymphopenia, no. of patients” value [1] of the same compound?
A: 3

Q: What about the “Mucositis, no. of patients” value [1] of the same compound?
A: 0

Q: And the “Myositis, no. of patients” value [1]?
A: 0

Q: What about the “Nausea, no. of patients” value [1] of the same compound?
A: 0

Q: What about the “Neutropenia, no. of patients” value [1] of the same compound?
A: 0

Q: And the “QT prolongation, no. of patients” value [1]?
A: 0

Q: What about the “Supra ventricular arrythmia, no. of patients” value [1] of the same compound?
A: 0

Q: What about the “Syncope, no. of patients” value [1] of the same compound?
A: 0

Q: And the “Thrombocytopenia, no. of patients” value [1]?
A: 0

Q: And the “Ventricular arrythmias (PVCs), no. of patients” value [1]?
A: 0

Q: What about the “Ventricular bigemini, no. of patients” value [1] of the same compound?
A: 0

Q: And the “Vomiting, no. of patients” value [1]?
A: 0

Q: What about the “ALT (raised), no. of patients” value [2] of the same compound?
A: 0

Q: What about the “AST (raised), no. of patients” value [2] of the same compound?
A: 0

Q: What about the “Abdominal pain, no. of patients” value [2] of the same compound?
A: 0

Q: What about the “Alkaline phophatase (raised), no. of patients” value [2] of the same compound?
A: 0

Q: What about the “Altered taste, no. of patients” value [2] of the same compound?
A: 0

Q: And the “Anaemia, no. of patients” value [2]?
A: 0

Q: What about the “Anorexia, no. of patients” value [2] of the same compound?
A: 0

Q: And the “Bilirubin (raised), no. of patients” value [2]?
A: 0

Q: What about the “CPK, no. of patients” value [2] of the same compound?
A: 0

Q: What about the “Cardiac arrythmia other, no. of patients” value [2] of the same compound?
A: 0

Q: What about the “Cardiac dysfunction, no. of patients” value [2] of the same compound?
A: 0

Q: What about the “Cardiac ischaemia, no. of patients” value [2] of the same compound?
A: 0

Q: And the “Constipation, no. of patients” value [2]?
A: 0

Q: And the “Creatinine (raised), no. of patients” value [2]?
A: 0

Q: And the “Diarrhoea, no. of patients” value [2]?
A: 0

Q: And the “Fatigue, no. of patients” value [2]?
A: 2

Q: And the “Leukopenia, no. of patients” value [2]?
A: 1

Q: And the “Lymphopenia, no. of patients” value [2]?
A: 3

Q: And the “Mucositis, no. of patients” value [2]?
A: 0

Q: What about the “Myositis, no. of patients” value [2] of the same compound?
A: 0

Q: And the “Nausea, no. of patients” value [2]?
A: 0

Q: What about the “Neutropenia, no. of patients” value [2] of the same compound?
A: 1

Q: And the “QT prolongation, no. of patients” value [2]?
A: 0

Q: And the “Supra ventricular arrythmia, no. of patients” value [2]?
A: 0

Q: What about the “Syncope, no. of patients” value [2] of the same compound?
A: 0

Q: And the “Thrombocytopenia, no. of patients” value [2]?
A: 1

Q: What about the “Ventricular arrythmias (PVCs), no. of patients” value [2] of the same compound?
A: 0

Q: And the “Ventricular bigemini, no. of patients” value [2]?
A: 0

Q: What about the “Vomiting, no. of patients” value [2] of the same compound?
A: 0

Q: What about the “ALT (raised), no. of patients” value [3] of the same compound?
A: 0

Q: And the “AST (raised), no. of patients” value [3]?
A: 0

Q: What about the “Abdominal pain, no. of patients” value [3] of the same compound?
A: 0

Q: And the “Alkaline phophatase (raised), no. of patients” value [3]?
A: 0

Q: And the “Altered taste, no. of patients” value [3]?
A: 0

Q: What about the “Anaemia, no. of patients” value [3] of the same compound?
A: 0

Q: What about the “Anorexia, no. of patients” value [3] of the same compound?
A: 0

Q: And the “Bilirubin (raised), no. of patients” value [3]?
A: 0

Q: What about the “CPK, no. of patients” value [3] of the same compound?
A: 0

Q: And the “Cardiac arrythmia other, no. of patients” value [3]?
A: 0

Q: And the “Cardiac dysfunction, no. of patients” value [3]?
A: 0

Q: What about the “Cardiac ischaemia, no. of patients” value [3] of the same compound?
A: 0

Q: And the “Constipation, no. of patients” value [3]?
A: 0

Q: And the “Creatinine (raised), no. of patients” value [3]?
A: 0

Q: And the “Diarrhoea, no. of patients” value [3]?
A: 0

Q: And the “Fatigue, no. of patients” value [3]?
A: 1

Q: And the “Leukopenia, no. of patients” value [3]?
A: 0

Q: What about the “Lymphopenia, no. of patients” value [3] of the same compound?
A: 0

Q: What about the “Mucositis, no. of patients” value [3] of the same compound?
A: 0

Q: And the “Myositis, no. of patients” value [3]?
A: 0

Q: What about the “Nausea, no. of patients” value [3] of the same compound?
A: 0

Q: And the “Neutropenia, no. of patients” value [3]?
A: 0

Q: And the “QT prolongation, no. of patients” value [3]?
A: 0

Q: What about the “Supra ventricular arrythmia, no. of patients” value [3] of the same compound?
A: 0

Q: What about the “Syncope, no. of patients” value [3] of the same compound?
A: 0

Q: And the “Thrombocytopenia, no. of patients” value [3]?
A: 0

Q: And the “Ventricular arrythmias (PVCs), no. of patients” value [3]?
A: 0

Q: And the “Ventricular bigemini, no. of patients” value [3]?
A: 0

Q: And the “Vomiting, no. of patients” value [3]?
A: 1

Q: And the “Dose omissions, no. of patients” value (RPTD 60 mg, n=7, alteration of liver function tests)?
A: two

Q: And the “Dose reductions, no. of patients” value (RPTD 60 mg, n=7, transaminase rise and QTc prolongation)?
A: two

Q: What about the “Grade 3 diarrhea, no. of patients” value (all 38 treated patients) of the same compound?
A: one

Q: And the “Grade 3 fatigue, no. of patients” value (all 38 treated patients)?
A: 4

Q: And the “Grade 3 myositis, no. of patients” value (all 38 treated patients)?
A: one

Q: What about the “Grade 3 syncope, no. of patients” value (all 38 treated patients) of the same compound?
A: one

Q: What about the “Grade 3 vomiting, no. of patients” value (all 38 treated patients) of the same compound?
A: one

Q: What about the “Anorexia, related AE, frequency” value [4] of the same compound?
A: 29%

Q: What about the “Diarrhoea, related AE, frequency” value [4] of the same compound?
A: 18%

Q: What about the “Fatigue, related AE, frequency” value [4] of the same compound?
A: 53%

Q: And the “Nausea, related AE, frequency” value [4]?
A: 39%

Q: And the “Vomiting, related AE, frequency” value [4]?
A: 29%

Q: What about the “Grade 2 QTc prolongation, no. of patients” value (all dose levels) of the same compound?
A: four

Q: What about the “Grade 3 QTc elevations” value (all dose levels) of the same compound?
A: none were grade 3

Q: And the “No. of patients with DLT/total no. of patients treated” value (dose level 1, dose 10, 3 days every 2 weeks)?
A: 0/3

Q: What about the “No. of patients with DLT/total no. of patients treated” value (dose level 2, dose 10, 5 days every 2 weeks, grade 3 bilirubin subsequently declared not drug related) of the same compound?
A: 1/6 ^a

Q: What about the DLT [5] of the same compound?
A: Grade 3 myositis

Q: What about the “No. of patients with DLT/total no. of patients treated” value [5] of the same compound?
A: 1/6

Q: What about the “No. of patients with DLT/total no. of patients treated” value (dose level 4, dose 30, 5 days every 2 weeks) of the same compound?
A: 0/4

Q: And the “No. of patients with DLT/total no. of patients treated” value (dose level 5, dose 50, 5 days every 2 weeks)?
A: 0/4

Q: What about the DLT (dose level 5.5, dose 60, 5 days every 2 weeks, not clear if entirely related to drug) of the same compound?
A: Grade 3 ALT ^d

Q: What about the “No. of patients with DLT/total no. of patients treated” value (dose level 6, dose 70, 5 days every 2 weeks, escalation phase) of the same compound?
A: 0/3

Q: What about the DLT [6] of the same compound?
A: Grade 4 platelets Grade 3 fatigue

Q: What about the “No. of patients with DLT/total no. of patients treated” value [6] of the same compound?
A: 3/3

Q: What about the DLT (dose level 7, dose 90, 5 days every 2 weeks) of the same compound?
A: Grade 3 fatigue Grade 3 vomiting

Q: What about the “No. of patients with DLT/total no. of patients treated” value (dose level 7, dose 90, 5 days every 2 weeks, neither patient completed a full cycle) of the same compound?
A: 1/2 ^b

Q: What about the “Grade 2 QTc prolongation, no. of patients” value (dose level of 60 mg or higher) of the same compound?
A: three

Q: What about the “Granulocytopenia, patients” value (dose levels ⩽50 mg) of the same compound?
A: 26%

Q: And the “Lymphopenia, patients” value (dose levels ⩽50 mg)?
A: 57%

Q: What about the “Granulocytopenia, patients” value (dose ⩾60 mg) of the same compound?
A: 60%

Q: And the “Lymphopenia, patients” value (dose ⩾60 mg)?
A: 80%

Q: And the “Thrombocytopenia, patients” value (dose ⩾60 mg)?
A: 87%

Q: What about the “Anaemia, no. of patients” value (grade 1) of the same compound?
A: 25

Q: And the “Anaemia, no. of patients” value (grade 2)?
A: 10

Q: And the “Anaemia, no. of patients” value (grade 3)?
A: 1

Q: What about the “Anaemia on study, no. of patients” value (of 38 patients, any grade) of the same compound?
A: Thirty-six

Q: What about the “Maximum QTc” value (one patient, Day 1 cycle 7, 10 h after dose, unclear if drug related) of the same compound?
A: 475 ms

Q: What about the “LVEF during periods of arrhythmia” value (one patient, cycle 7, baseline 55%, unclear if drug related) of the same compound?
A: 20–39%

Q: And the “Recommended phase II dose (RPTD)” value (oral, 5 consecutive days every 2 weeks)?
A: 60 mg

Q: What about the “Maximal administered dose (MAD)” value (oral, 5 days every 2 weeks) of the same compound?
A: 90 mg

Q: What about the “Grade 3 CPK elevation, no. of patients” value (patient with myositis) of the same compound?
A: one
